In general, viability refers to a read-out of living cells in per cent, often relative to untreated cells.

The source of these data is article PMC6556873, “Rapid Covalent-Probe Discovery by Electrophile-Fragment Screening” (Journal of the American Chemical Society, 2019).

Where two headings read alike, the source gives them in different places.

The target of series [1] is T1, BSA (Bos taurus, UniProt P02769).
T1 construct: gene ALB
On the set-up: Intact protein LC/MS covalent labelling, fragments in pools of five, 200 uM each, 4 °C. The following applies: 24 h, 4 °C, pool of five; 200 µM; covalent.

For series [2], the target named is T2, NNMT (hNNMT) (Homo sapiens, UniProt P40261).
T2 construct: wild type, N-terminal His6 tag kept (no cleavage described), E. coli, construct 31248 Da
T2 sequence (P40261 1-264): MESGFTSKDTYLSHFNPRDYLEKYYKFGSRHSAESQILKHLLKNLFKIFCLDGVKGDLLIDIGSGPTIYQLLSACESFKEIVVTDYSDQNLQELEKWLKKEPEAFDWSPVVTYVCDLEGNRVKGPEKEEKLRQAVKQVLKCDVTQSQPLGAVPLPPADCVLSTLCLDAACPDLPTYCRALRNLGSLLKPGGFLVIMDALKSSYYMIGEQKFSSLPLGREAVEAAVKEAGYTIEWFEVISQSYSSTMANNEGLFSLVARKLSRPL
Set-up: Intact protein LC/MS covalent labelling, fragments in pools of five, 200 uM each, 4 °C. The note with it: 24 h, 4 °C, pool of five; 200 µM; covalent.

Series [3] addresses T3, NUDT7 (Homo sapiens, UniProt P0C024).
T3 construct: residues 14-235, E. coli, pNIC28-Bsa4, N-terminal His6 tag removed by TEV, construct 26672 Da
On the set-up: Intact protein LC/MS covalent labelling, fragments in pools of five, 200 uM each, 4 °C. The note with it: 24 h, 4 °C, pool of five; 200 µM; covalent.

The target in series [4] is T4, OTUB2 (OTUB2A) (Homo sapiens, UniProt Q96DC9).
T4 construct: full length residues 1-234, E. coli BL21(DE3)-R3, His tag removed by TEV, construct 27312 Da
T4 sequence (Q96DC9 1-234): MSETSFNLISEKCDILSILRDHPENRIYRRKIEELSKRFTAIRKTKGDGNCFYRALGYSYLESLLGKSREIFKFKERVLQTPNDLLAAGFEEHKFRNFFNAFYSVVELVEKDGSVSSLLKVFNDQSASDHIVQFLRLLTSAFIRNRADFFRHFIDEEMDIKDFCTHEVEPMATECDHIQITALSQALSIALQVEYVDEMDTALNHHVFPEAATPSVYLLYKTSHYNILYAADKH
Set-up: Intact protein LC/MS covalent labelling, fragments in pools of five, 200 uM each, 4 °C. The note with it: 24 h, 4 °C, pool of five; 200 µM; covalent.

The target of series [5] is T5, PCAF (Homo sapiens, UniProt Q92831).
T5 construct: gene KAT2B
T5 sequence (Q92831 whole entry): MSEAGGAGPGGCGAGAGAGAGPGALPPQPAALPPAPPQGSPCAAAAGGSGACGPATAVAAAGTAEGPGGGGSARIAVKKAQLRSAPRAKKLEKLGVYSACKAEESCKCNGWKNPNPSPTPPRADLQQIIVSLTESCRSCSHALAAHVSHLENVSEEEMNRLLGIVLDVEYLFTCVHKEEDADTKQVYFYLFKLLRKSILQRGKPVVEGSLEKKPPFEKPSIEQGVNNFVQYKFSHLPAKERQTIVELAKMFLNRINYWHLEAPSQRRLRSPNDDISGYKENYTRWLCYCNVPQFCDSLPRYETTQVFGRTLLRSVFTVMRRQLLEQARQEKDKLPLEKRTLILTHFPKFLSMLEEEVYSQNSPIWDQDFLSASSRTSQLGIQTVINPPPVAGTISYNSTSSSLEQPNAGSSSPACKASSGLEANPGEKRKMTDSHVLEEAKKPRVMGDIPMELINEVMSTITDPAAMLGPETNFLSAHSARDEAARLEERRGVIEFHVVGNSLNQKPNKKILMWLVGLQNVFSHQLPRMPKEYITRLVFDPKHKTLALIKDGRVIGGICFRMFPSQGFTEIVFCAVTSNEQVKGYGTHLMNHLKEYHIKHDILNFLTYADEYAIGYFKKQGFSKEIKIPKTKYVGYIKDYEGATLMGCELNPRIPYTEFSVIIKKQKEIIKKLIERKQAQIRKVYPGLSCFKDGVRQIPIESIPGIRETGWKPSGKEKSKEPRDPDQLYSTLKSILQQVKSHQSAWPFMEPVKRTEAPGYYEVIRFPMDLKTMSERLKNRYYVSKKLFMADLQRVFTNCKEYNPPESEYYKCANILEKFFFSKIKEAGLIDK
On the set-up: Intact protein LC/MS covalent labelling, fragments in pools of five, 200 uM each, 4 °C. The note with it: 24 h, 4 °C, pool of five; 200 µM; covalent.

A short description of series [6]: in vitro. Set-up: species or system CCD841, HEK293. The following applies: human, hb2 cells, read-out: HB-2 Cells Viability (%).
Series [7] can be described thus: in vitro. Set-up: species or system HB2, HEK293. The following applies: human, ccd841 cells.
Series [8] in a line: in vitro. Set-up: species or system HB2, CCD841. The following applies: human, hek293 cells.

T3 sequence (P0C024 14-235): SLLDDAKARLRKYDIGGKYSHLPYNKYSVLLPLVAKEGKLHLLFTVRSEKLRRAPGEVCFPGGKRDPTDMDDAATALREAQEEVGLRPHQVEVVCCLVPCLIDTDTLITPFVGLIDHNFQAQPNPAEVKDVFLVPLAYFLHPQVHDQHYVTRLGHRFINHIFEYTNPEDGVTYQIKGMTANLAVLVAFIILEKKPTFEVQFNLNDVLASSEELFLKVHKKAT
T1 sequence (P02769 whole entry): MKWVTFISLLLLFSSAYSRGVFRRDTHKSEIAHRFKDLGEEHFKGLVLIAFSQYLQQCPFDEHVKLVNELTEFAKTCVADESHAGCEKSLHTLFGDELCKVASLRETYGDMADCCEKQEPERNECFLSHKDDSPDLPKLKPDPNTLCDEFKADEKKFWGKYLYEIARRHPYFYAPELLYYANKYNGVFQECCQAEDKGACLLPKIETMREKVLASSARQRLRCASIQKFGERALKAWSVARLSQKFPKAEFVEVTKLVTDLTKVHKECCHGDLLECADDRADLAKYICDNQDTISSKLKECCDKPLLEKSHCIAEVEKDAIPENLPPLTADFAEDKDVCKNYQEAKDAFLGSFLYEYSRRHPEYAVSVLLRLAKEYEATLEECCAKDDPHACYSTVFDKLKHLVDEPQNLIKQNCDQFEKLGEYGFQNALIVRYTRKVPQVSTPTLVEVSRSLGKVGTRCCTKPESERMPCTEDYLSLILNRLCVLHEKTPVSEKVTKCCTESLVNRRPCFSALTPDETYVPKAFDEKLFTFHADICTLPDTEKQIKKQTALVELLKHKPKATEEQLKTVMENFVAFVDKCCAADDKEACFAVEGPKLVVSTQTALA

As for `O=C(CCl)N1CCC(C(=O)N2CCCC2)CC1` [PCM-0102655], in series [1], the BSA came to 0. The same compound came in with an NNMT in series [2] of 0.17. The same compound had an NUDT7 in series [3] of 0. In series [4], this compound came in with an OTUB2 of 0. The same compound had a PCAF in series [5] of 0. Moreover, the viability at 48 h, 10 µM in series [6] is 94%; in series [7], 78.5%; in series [8], 87%.
Consider `COc1ccc(C(=O)NC(=O)CCl)cc1` [PCM-0102454], for which the BSA in series [1] came out at 0. This compound registered an NNMT in series [2] of 0.36. In series [3], this compound gave an NUDT7 of 0. Moreover, the OTUB2 in series [4] was determined as 0. The PCAF in series [5] came out at 0. Also, the figures for the viability at 48 h, 10 µM in series [6], in series [7] and in series [8] were 97.1%, 103% and 96.7%, respectively.
`C=CC(=O)N1CCN(C(=O)CN2C(=O)CCC2=O)CC1` [PCM-0102684] showed a BSA in series [1] of 0. This compound gave an NNMT in series [2] of 0. The same compound came in with an NUDT7 in series [3] of 0.08. The compound further registered an OTUB2 in series [4] of 0. This compound also came in with a PCAF in series [5] of 0. Also, the values for the viability at 48 h, 10 µM in series [6], in series [7] and in series [8] were 99.9%, 103% and 105%, respectively.
Take `C=CC(=O)N1CCCN(c2ccc(-c3ccccc3)nn2)CC1` [PCM-0102964]: in series [1], the BSA turned out to be 0. The same compound gave an NNMT in series [2] of 0. The NUDT7 in series [3] is 0. In series [4], this compound displayed an OTUB2 of 0. Also, the PCAF in series [5] amounted to 0. The results for the viability at 48 h, 10 µM in series [6], in series [7] and in series [8] were 102%, 103% and 87.2%, respectively.
In the case of `CC(C)(C)CCNC(=O)CCl` [PCM-0102853], in series [1], the BSA is recorded as 0. In addition, in series [2], the NNMT was found to be 0.24. The compound also yielded an NUDT7 in series [3] of 0. The compound also came in with an OTUB2 in series [4] of 0. Besides, the PCAF in series [5] stood at 0. Moreover, the viability at 48 h, 10 µM was 99.7% in series [6], 91.6% in series [7] and 102% in series [8].
In series [1], `O=C(CCl)NCc1ccccc1F` [PCM-0102149] came in with a BSA of 0. The compound also showed an NNMT in series [2] of 0. The NUDT7 in series [3] came out at 0. The same compound came in with an OTUB2 in series [4] of 0.62. In series [5], this compound registered a PCAF of 0. Also, the viability at 48 h, 10 µM worked out at 86.4% in series [6], 63.7% in series [7] and 71.3% in series [8].
Compound `O=C(CCl)Nc1ccc(F)cc1` [PCM-0103002] yielded a BSA in series [1] of 0. This compound also yielded an NNMT in series [2] of 0. Moreover, in series [3], the NUDT7 amounted to 0. The same compound had an OTUB2 in series [4] of 0.3. Further, the PCAF in series [5] is on record as 0. For the same compound, the viability at 48 h, 10 µM in series [6] was found to be 68.5%; in series [7] it was 71.8%; in series [8] it was 35.5%.
`C=CC(=O)N1CCCC(c2nncn2C2CC2)C1` (stereo not drawn) [PCM-0102567] yielded a BSA in series [1] of 0. This compound returned an NNMT in series [2] of 0. The same compound yielded an NUDT7 in series [3] of 0. This compound yielded an OTUB2 in series [4] of 0. Moreover, the PCAF in series [5] amounted to 0. The viability at 48 h, 10 µM worked out at 102% in series [6], 112% in series [7] and 113% in series [8].
In series [1], `C=CC(=O)N1CCCCC1c1ncon1` (stereo not drawn) [PCM-0102517] yielded a BSA of 0. In addition, the NNMT in series [2] is 0. The compound further returned an NUDT7 in series [3] of 0. Besides, the OTUB2 in series [4] is recorded as 0. Moreover, the PCAF in series [5] was determined as 0. For the same compound, the viability at 48 h, 10 µM in series [6] turned out to be 101%; in series [7] it was 120%; in series [8], 91.3%.
`Cc1nc(C2(NC(=O)CCl)CCCCCC2)no1` [PCM-0102944] yielded a BSA in series [1] of 0. This compound also returned an NNMT in series [2] of 0. The compound also yielded an NUDT7 in series [3] of 0. Further, the OTUB2 in series [4] turned out to be 0. In series [5], this compound showed a PCAF of 0. Also, the viability at 48 h, 10 µM in series [6] is 103%; in series [7] it was 113%; in series [8] it was 129%.
Regarding `Cl.O=C(CCl)N1CCN(c2ccccc2F)CC1` [PCM-0102373], the BSA in series [1] amounted to 0. Also, the NNMT in series [2] was 0. Besides, the NUDT7 in series [3] is 0. Moreover, the OTUB2 in series [4] amounted to 0. This compound had a PCAF in series [5] of 0. Moreover, the viability at 48 h, 10 µM in series [6] stood at 55.8%; in series [7], 79.7%; in series [8], 64.3%.
In turn, `O=C(CCl)NC1CCS(=O)(=O)C1` (stereo not drawn) [PCM-0102138] gave a BSA in series [1] of 0. Further, the NNMT in series [2] is 0. Besides, the NUDT7 in series [3] is listed as 0. The OTUB2 in series [4] stood at 0. In series [5], this compound yielded a PCAF of 0. For the same compound, the viability at 48 h, 10 µM worked out at 92.6% in series [6], 84.2% in series [7] and 113% in series [8].
On to `O=C(CCl)Nc1oncc1-c1ccccc1` [PCM-0102746], for which the BSA in series [1] stood at 0. The compound further registered an NNMT in series [2] of 0.87. This compound came in with an NUDT7 in series [3] of 0. The compound further returned an OTUB2 in series [4] of 0.64. This compound also displayed a PCAF in series [5] of 0. The viability at 48 h, 10 µM turned out to be 72.1% in series [6], 71.8% in series [7] and 73.3% in series [8].
`C=CC(=O)NNC(=O)c1ccccc1` [PCM-0102541]: the BSA in series [1] is 0. The same compound had an NNMT in series [2] of 0. Also, in series [3], the NUDT7 is reported as 0. This compound also came in with an OTUB2 in series [4] of 0. In series [5], this compound displayed a PCAF of 0. The viability at 48 h, 10 µM in series [6] stood at 106%; in series [7] it was 112%; in series [8], 106%.
In turn, `CN(C)C(=O)CN1CCN(C(=O)CCl)CC1.Cl` [PCM-0102304] came in with a BSA in series [1] of 0. This compound also returned an NNMT in series [2] of 0. Further, the NUDT7 in series [3] is given as 0. The OTUB2 in series [4] is given as 0. Further, the PCAF in series [5] was found to be 0. Moreover, the viability at 48 h, 10 µM was determined as 107% in series [6], 114% in series [7] and 128% in series [8].
On to `Cc1ccccc1CN(C)C(=O)CCl` [PCM-0102707], for which the BSA in series [1] amounted to 0. Moreover, the NNMT in series [2] is 0.13. In series [3], this compound returned an NUDT7 of 0.13. Besides, the OTUB2 in series [4] is given as 0. In addition, the PCAF in series [5] worked out at 0. Besides, the viability at 48 h, 10 µM was 7.9% in series [6], 57% in series [7] and 11.6% in series [8].
`CC(C)N(C(=O)CCl)c1ccccc1` [PCM-0102272] had a BSA in series [1] of 0. In series [2], this compound displayed an NNMT of 0. Besides, the NUDT7 in series [3] stood at 0.22. In series [4], this compound displayed an OTUB2 of 0. Further, the PCAF in series [5] turned out to be 0. Further, the viability at 48 h, 10 µM in series [6] stood at 58.6%; in series [7] it was 17.7%; in series [8] it was 16%.
With `C=CC(=O)Nc1ccc(N2CCCC2=O)cc1` [PCM-0102145], the BSA in series [1] was 0. The compound further yielded an NNMT in series [2] of 0.14. Also, the NUDT7 in series [3] is given as 0. In series [4], this compound came in with an OTUB2 of 0. Moreover, in series [5], the PCAF is 0. Besides, the viability at 48 h, 10 µM is 101% in series [6], 125% in series [7] and 91.4% in series [8].
